From patent US10377719B2, “Trypanosomes inhibitors” (Hoffmann-La Roche Inc., priority 2015, dated 2019)

Tested on: Trypanosoma brucei rhodesiense STIB900
Assay: Activity against Trypanosoma brucei rhodesiense STIB900 (Alamar Blue assay)
Assay type: cell-based
Details: bloodstream forms of T. b. rhodesiense STIB 900, 70 h incubation
Experimental: Activity Against Trypanosoma brucei Rhodesiense STIB900
This stock was isolated in 1982 from a human patient in Tanzania and after several mouse passages cloned and adapted to axenic culture conditions (Baltz, T., D. Baltz, C. Giroud, and J. Crockett. 1985, Cultivation in a semi-defined medium of animal infective forms of Trypanosoma brucei, T. equiperdum, T. evansi, T. rhodesiense and T. gambiense. EMBO Journal 4:1273-1277). Minimum Essential Medium (50 μl) supplemented with 25 mM HEPES, 1 g/l additional glucose, 1% MEM non-essential amino acids (100×), 0.2 mM 2-mercaptoethanol, 1 mM Na-pyruvate and 15% heat inactivated horse serum was added to each well of a 96-well microtiter plate. Serial drug dilutions of eleven 3-fold dilution steps covering a range from […] were prepared. Then 4×10^3 bloodstream forms of T. b. rhodesiense STIB 900 in 50 μl was added to each well and the plate incubated at 37° C. under a 5% CO2 atmosphere for 70 h. 10 μl Alamar Blue (resazurin, 12.5 mg in 100 ml double-distilled water) was then added to each well and incubation continued for a further 2-4 h (Räz, B., M. Iten, Y. Grether-Buhler, R. Kaminsky, and R. Brun. 1997, The Alamar Blue assay to determine drug sensitivity of African trypanosomes (T.b. rhodesiense and T.b. gambiense) in vitro. Acta Trop 68:139-47). Then the plates were read with a Spectramax Gemini XS microplate fluorometer (Molecular Devices Cooperation, Sunnyvale, Calif., USA) using an excitation wave length of 536 nm and an emission wave length of 588 nm. The IC50 values were calculated by linear regression (Huber, W. Koella, J. C. 1993, A comparison of the three methods of estimating EC50 in studies of drug resistance of malaria parasites. Acta Trop. 55, 257-261) from the sigmoidal dose inhibition curves using SoftmaxPro software (Molecular Devices Cooperation, Sunnyvale, Calif., USA). Melarsoprol is used as control.

SMILES	IC50 (Trypanosoma brucei, 70 h)	IC50
COc1ccc(-c2cc(C(=O)N[C@@H](Cc3ccc(OC(F)(F)F)c(Cl)c3)C(=O)NC3(C#N)CC3)[nH]n2)cc1 [Example 12, (S)—N-(3-(3-chloro-4-(trifluoromethoxy)phenyl)-1-(1-cyanocyclopropylamino)-1-oxopropan-2-yl)-3-(4-methoxyphenyl)-1H-pyrazole-5-carboxamide]	0.162 µM	
N#CC1(NC(=O)[C@H](Cc2ccc(OC(F)(F)F)c(Cl)c2)NC(=O)c2cc(-c3ccccc3)no2)CC1 [Example 13, (S)—N-(3-(3-chloro-4-(trifluoromethoxy)phenyl)-1-(1-cyanocyclopropylamino)-1-oxopropan-2-yl)-3-phenylisoxazole-5-carboxamide]	0.003 µM	
Cc1nn(-c2ccccc2)nc1C(=O)N[C@@H](Cc1ccc(OC(F)(F)F)c(Cl)c1)C(=O)NC1(C#N)CC1 [Example 14, (S)—N-(3-(3-chloro-4-(trifluoromethoxy)phenyl)-1-(1-cyanocyclopropylamino)-1-oxopropan-2-yl)-5-methyl-2-phenyl-2H-1,2,3-triazole-4-carboxamide]	0.145 µM	
N#CC1(NC(=O)[C@H](Cc2ccc(OC(F)(F)F)c(Cl)c2)NC(=O)c2noc(-c3cccc(F)c3)n2)CC1 [Example 15, (S)—N-(3-(3-chloro-4-(trifluoromethoxy)phenyl)-1-(1-cyanocyclopropylamino)-1-oxopropan-2-yl)-5-(3-fluorophenyl)-1,2,4-oxadiazole-3-carboxamide]	0.005 µM	
N#CC1(NC(=O)[C@H](Cc2ccc(OC(F)(F)F)c(Cl)c2)NC(=O)c2cnn(-c3ccccc3)n2)CC1 [Example 16, (S)—N-(3-(3-chloro-4-(trifluoromethoxy)phenyl)-1-(1-cyanocyclopropylamino)-1-oxopropan-2-yl)-2-phenyl-2H-1,2,3-triazole-4-carboxamide]	0.005 µM	
Cn1nc(-c2cccc(Cl)c2)cc1C(=O)N[C@@H](Cc1ccc(OC(F)(F)F)c(Cl)c1)C(=O)NC1(C#N)CC1 [Example 17, (S)—N-(3-(3-chloro-4-(trifluoromethoxy)phenyl)-1-(1-cyanocyclopropylamino)-1-oxopropan-2-yl)-3-(3-chlorophenyl)-1-methyl-1H-pyrazole-5-carboxamide]	0.413 µM	
N#CC1(NC(=O)[C@H](Cc2ccc(OC(F)(F)F)c(Cl)c2)NC(=O)c2noc(-c3cccc(Cl)c3)n2)CC1 [Example 18, (S)—N-(3-(3-chloro-4-(trifluoromethoxy)phenyl)-1-(1-cyanocyclopropylamino)-1-oxopropan-2-yl)-5-(3-chlorophenyl)-1,2,4-oxadiazole-3-carboxamide]	0.007 µM	
N#CC1(NC(=O)[C@H](Cc2ccc(OC(F)(F)F)c(Cl)c2)NC(c2nnc(-c3ccc(Br)cc3)o2)C(F)(F)F)CC1 (stereo partly drawn) [Example 19, (2S)-2-[[1-[5-(4-bromophenyl)-1,3,4-oxadiazol-2-yl]-2,2,2-trifluoroethyl]amino]-3-[3-chloro-4-(trifluoromethoxy)phenyl]-N-(1-cyanocyclopropyl)propanamide]	10.1 µM	
N#CC1(NC(=O)[C@H](Cc2ccc(OC(F)(F)F)c(Cl)c2)NC(c2nnc(-c3ccc(Br)cc3)o2)C(F)(F)F)CC1 (stereo partly drawn) [Example 20, (2S)-2-(1-(5-(4-bromophenyl)-1,3,4-oxadiazol-2-yl)-2,2,2-trifluoroethylamino)-3-(3-chloro-4-(trifluoromethoxy)phenyl)-N-(1-cyanocyclopropyl)propanamide]		16.1 µM
N#CC1(NC(=O)[C@H](Cc2ccc(OC(F)(F)F)c(Cl)c2)NC(c2nnc(-c3ccccc3)o2)C(F)(F)F)CC1 (stereo partly drawn) [Example 22, (2S)-3-(3-chloro-4-(trifluoromethoxy)phenyl)-N-(1-cyanocyclopropyl)-2-(2,2,2-trifluoro-1-(5-phenyl-1,3,4-oxadiazol-2-yl)ethylamino)propanamide]	16.6 µM	
CSc1ccc(-n2ncc(C(=O)N[C@@H](Cc3ccc(OC(F)(F)F)c(Cl)c3)C(=O)NC3(C#N)CC3)n2)cc1 [Example 23, N-[(2S)-3-[3-chloro-4-(trifluoromethoxy)phenyl]-1-[(1-cyanocyclopropyl)amino]-1-oxopropan-2-yl]-2-(4-methylsulfanylphenyl)triazole-4-carboxamide]	0.067 µM	
N#CC1(NC(=O)[C@H](Cc2ccc(OC(F)(F)F)c(Cl)c2)NC(=O)c2cnn(-c3ccc(Cl)cc3)n2)CC1 [Example 24, 2-(4-chlorophenyl)-N-[(2S)-3-[3-chloro-4-(trifluoromethoxy)phenyl]-1-[(1-cyanocyclopropyl)amino]-1-oxopropan-2-yl]triazole-4-carboxamide]	0.022 µM	
N#CC1(NC(=O)[C@H](Cc2cccc(Cl)c2)NC(=O)c2cnn(-c3ccc(F)cc3)n2)CC1 [Example 25, N-[(2S)-3-(3-chlorophenyl)-1-[(1-cyanocyclopropyl)amino]-1-oxopropan-2-yl]-2-(4-fluorophenyl)triazole-4-carboxamide]	1.33 µM	
N#CC1(NC(=O)[C@H](Cc2ccc(OC(F)(F)F)c(Cl)c2)NC(=O)c2cnn(-c3cccnc3)n2)CC1 [Example 26, N-[(2S)-3-[3-chloro-4-(trifluoromethoxy)phenyl]-1-[(1-cyanocyclopropyl)amino]-1-oxopropan-2-yl]-2-pyridin-3-yltriazole-4-carboxamide]	0.001 µM	
N#CC1(NC(=O)[C@H](Cc2ccccc2)NC(=O)c2cnn(-c3ccc(F)cc3)n2)CC1 [Example 27, N-[(2S)-1-[(1-cyanocyclopropyl)amino]-1-oxo-3-phenylpropan-2-yl]-2-(4-fluorophenyl)triazole-4-carboxamide]	0.516 µM	
N#CC1(NC(=O)[C@H](Cc2ccc(OCC3CC3)c(Cl)c2)NC(=O)c2cnn(-c3ccc(F)cc3)n2)CC1 [Example 28, N-[(2S)-3-[3-chloro-4-(cyclopropylmethoxy)phenyl]-1-[(1-cyanocyclopropyl)amino]-1-oxopropan-2-yl]-2-(4-fluorophenyl)triazole-4-carboxamide]	0.19 µM	
N#CC1(NC(=O)[C@H](Cc2ccc(Cl)c(Cl)c2)NC(=O)c2cnn(-c3ccc(F)cc3)n2)CC1 [Example 29, N-[(2S)-1-[(1-cyanocyclopropyl)amino]-3-(3,4-dichlorophenyl)-1-oxopropan-2-yl]-2-(4-fluorophenyl)triazole-4-carboxamide]	0.007 µM	
N#CC1(NC(=O)[C@H](Cc2ccc(OC(F)(F)F)c(Cl)c2)NC(=O)c2cnn(-c3ccc(F)nc3)n2)CC1 [Example 30, N-[(2S)-3-[3-chloro-4-(trifluoromethoxy)phenyl]-1-[(1-cyanocyclopropyl)amino]-1-oxopropan-2-yl]-2-(6-fluoropyridin-3-yl)triazole-4-carboxamide]	0.005 µM	
N#CC1(NC(=O)[C@H](Cc2ccc(OCc3ccccc3)cc2)NC(=O)c2cnn(-c3ccc(F)cc3)n2)CC1 [Example 31, N-[(2S)-1-[(1-cyanocyclopropyl)amino]-1-oxo-3-(4-phenylmethoxyphenyl)propan-2-yl]-2-(4-fluorophenyl)triazole-4-carboxamide]	0.019 µM	
CC(C)C[C@H](NC(=O)c1cnn(-c2ccc(F)cc2)n1)C(=O)NC1(C#N)CC1 [Example 32, N-[(2S)-1-[(1-cyanocyclopropyl)amino]-4-methyl-1-oxopentan-2-yl]-2-(4-fluorophenyl)triazole-4-carboxamide]	2.23 µM	
CC(C)n1ncc(C(=O)N[C@@H](Cc2ccc(OC(F)(F)F)c(Cl)c2)C(=O)NC2(C#N)CC2)n1 [Example 33, N-[(2S)-3-[3-chloro-4-(trifluoromethoxy)phenyl]-1-[(1-cyanocyclopropyl)amino]-1-oxopropan-2-yl]-2-propan-2-yltriazole-4-carboxamide]	0.004 µM	
Cn1ncc(C(=O)N[C@@H](Cc2ccc(OC(F)(F)F)c(Cl)c2)C(=O)NC2(C#N)CC2)n1 [Example 34, N-[(2S)-3-[3-chloro-4-(trifluoromethoxy)phenyl]-1-[(1-cyanocyclopropyl)amino]-1-oxopropan-2-yl]-2-methyltriazole-4-carboxamide]	0.04 µM	
N#CC1(NC(=O)[C@H](Cc2ccc(OC(F)(F)F)c(Cl)c2)NC(=O)c2cnn(-c3ccc(Br)cc3)n2)CC1 [Example 35, 2-(4-bromophenyl)-N-[(2S)-3-[3-chloro-4-(trifluoromethoxy)phenyl]-1-[(1-cyanocyclopropyl)amino]-1-oxopropan-2-yl]triazole-4-carboxamide]	0.028 µM	
COCCOc1ccc(C[C@H](NC(=O)c2cnn(-c3ccc(F)cc3)n2)C(=O)NC2(C#N)CC2)cc1Cl [Example 36, N-[(2S)-3-[3-chloro-4-(2-methoxyethoxy)phenyl]-1-[(1-cyanocyclopropyl)amino]-1-oxopropan-2-yl]-2-(4-fluorophenyl)triazole-4-carboxamide]	0.065 µM	
